According to patent US20100249071A1, “Modulators of S1P and Methods of Making And Using” (Exelixis, Inc., priority 2009, published 2010):
Where two headings read alike, the source gives them in different places.

Key:
[1] = molecular target: T1, hS1P1R (hEdg1) membrane protein (Homo sapiens, UniProt P21453); assay: hS1P1R GTPγS binding assay (Assay 3a); format: biochemical
T1 construct: purchased Lonza
Description: Assay 3a: The hS1P1R GTPγS binding assay was carried out at room temperature in 96 well non-binding surface assay plates. The reaction in each well contained 4 μg hS1P1R (hEdg1) membrane protein (Lonza), 30 μM GDP, 0.1 nM [^35S]GTPγS, 0.25% fatty acid free BSA, and serially diluted hS1P1R agonist compound in 200 μL assay buffer (25 mM Tris-HCl PH 7.9, 100 mM NaCl, 3 mM MgCl2, and 0.2 mM EGTA). After one hour of incubation, 0.9 mg of WGA (Wheat Germ Agglutinin) SPA beads in 50 μL of assay buffer was added to each well. The SPA beads were spun down after an additional one hour incubation. The radioactivity of the bound GTPγS was counted by reading the assay plate using a MicroBeta.

S1P1 = molecular target: T2, S1P1 (Homo sapiens, UniProt P21453); assay: Tango β-arrestin recruitment assay in U2OS cells (Assay 2b); format: cell-based; conditions: read-out: Assay 2b EC50
T2 construct: host or cells: U2OS
T2 sequence (P32121 whole entry): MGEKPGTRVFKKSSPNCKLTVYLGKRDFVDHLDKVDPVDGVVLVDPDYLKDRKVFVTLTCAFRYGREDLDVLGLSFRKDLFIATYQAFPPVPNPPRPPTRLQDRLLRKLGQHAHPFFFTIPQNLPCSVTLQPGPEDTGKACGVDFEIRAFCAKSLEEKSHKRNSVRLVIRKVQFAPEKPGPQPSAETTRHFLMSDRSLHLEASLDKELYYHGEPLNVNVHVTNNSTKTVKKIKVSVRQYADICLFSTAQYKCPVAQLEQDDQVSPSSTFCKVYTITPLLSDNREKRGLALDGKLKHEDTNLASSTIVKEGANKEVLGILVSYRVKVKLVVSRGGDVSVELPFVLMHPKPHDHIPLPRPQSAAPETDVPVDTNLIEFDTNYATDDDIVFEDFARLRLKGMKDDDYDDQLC
T2 sequence (P21453 whole entry): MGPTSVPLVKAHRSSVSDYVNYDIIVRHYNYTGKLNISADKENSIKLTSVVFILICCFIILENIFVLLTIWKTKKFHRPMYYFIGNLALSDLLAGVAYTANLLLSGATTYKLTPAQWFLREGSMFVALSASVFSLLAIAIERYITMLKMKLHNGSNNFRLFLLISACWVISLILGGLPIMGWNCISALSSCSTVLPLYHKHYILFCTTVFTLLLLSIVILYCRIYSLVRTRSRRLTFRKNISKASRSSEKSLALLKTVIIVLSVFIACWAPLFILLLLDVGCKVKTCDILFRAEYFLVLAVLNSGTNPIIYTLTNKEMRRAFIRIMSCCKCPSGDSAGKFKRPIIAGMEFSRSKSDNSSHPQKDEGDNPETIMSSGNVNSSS
Source text: (§1) For the Tango™ β-arrestin recruitment assay, the cytoplasmic C-terminus of S1P1 was tethered to the tTA transcriptional activator with a linker that contains a cleavage site for the N1a protease from tobacco etch virus (TEV protease). The C-terminus of the human β-arrestin2 protein was fused to TEV protease. Binding of an agonist recruits the βl -arrestin-TEV fusion protein to the receptor resulting in cleavage of the linker and released of tTA to enter the nucleus and subsequently activated a tTA-dependent luciferase reporter gene.
Assay 2b: Alternatively, U2OS cells expressing the reporter gene and S1P1 (Invitrogen) were added to the wells of a 384-well white opaque bottom assay plate (PerkinElmer) at […]. The cells were serum starved for 48 h in Freestyle medium (Invitrogen). Test compounds were tested at maximum concentrations of 1 μM for the agonist assay. Compounds were diluted in DMSO (10 concentration points, 3-fold each) and added to the assay plate at a 1% final DMSO concentration. The efficacy control was 1 μM S1P (Avanti). For each compound, there were duplicate assay plates and each assay plate had duplicate wells per concentration point. The plate was incubated overnight at 37° C. The GeneBLAzer β-lactamase assay reagent (Invitrogen) was added and the plates were incubated for an additional 2 h at room temperature. Fluorescence was measured using an EnVision plate reader (PerkinElmer, Waltham, Mass.) at an excitation wavelength of 409 nm and emission wavelengths of 460 nm and 530 nm. The emission intensity at each wavelength was background subtracted against wells containing medium only and the F460 nm/F530 nm ratio determined for each concentration of the test compounds. Percent activity was calculated as [(test compound ratio−DMSO ratio)/(positive control ratio−DMSO ratio)*100], where the positive control and DMSO ratios are from cells incubated with the efficacy control 1 μM S1P and 1% DMSO, respectively. The percent activities were plotted against compound concentration to determine EC50 using XLFit (IDBS).

[2] = molecular target: T3, hS1PR5 (hEdg8) membrane protein (Homo sapiens, UniProt Q9H228); assay: hS1P5R GTPγS binding assay (Assay 4); format: biochemical
T3 construct: expressed in transfected cells; host or cells: CHO
T3 sequence (Q9H228 whole entry): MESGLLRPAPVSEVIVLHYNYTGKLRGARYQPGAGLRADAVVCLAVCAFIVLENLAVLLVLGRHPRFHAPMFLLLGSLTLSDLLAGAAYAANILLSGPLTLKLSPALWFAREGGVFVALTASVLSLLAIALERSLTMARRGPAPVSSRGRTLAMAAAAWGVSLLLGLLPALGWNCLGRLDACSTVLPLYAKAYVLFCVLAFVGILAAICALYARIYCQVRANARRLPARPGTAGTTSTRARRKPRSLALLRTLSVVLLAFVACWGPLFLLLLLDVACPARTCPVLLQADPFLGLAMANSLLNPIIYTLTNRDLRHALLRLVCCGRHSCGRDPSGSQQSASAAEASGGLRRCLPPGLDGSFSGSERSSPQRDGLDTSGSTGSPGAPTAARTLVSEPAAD
Description: The hS1PR5 GTPγS binding assay was carried out at room temperature in 96-well non-binding surface assay plates. The reaction in each well contained 5 μg hS1PR5 (hEdg8) membrane protein from CHO cells expressing hS1PR5, 30 μM GDP, 0.1 nM [^35S]GTPγS, 0.25% fatty acid free BSA, and serially-diluted Compound of the Invention in 200 μL assay buffer (25 mM Tris-HCl PH 7.9, 100 mM NaCl, 3 mM MgCl2, and 0.2 mM EGTA). After one hour of incubation, 0.9 mg of WGA (Wheat Germ Agglutinin) SPA beads in 50 μL of assay buffer was added to each well. The SPA beads were spun down after an additional one hour incubation. The radioactivity of the bound GTPγS was counted by reading the assay plate using a MicroBeta.

S1P3 = molecular target: T4, S1P3 (Homo sapiens, UniProt Q99500); assay: S1P3 Tango β-arrestin recruitment assay in HEK293 cells (Assay 5); format: cell-based
T4 construct: host or cells: HEK293 (transient transfection)
T4 sequence (P32121 whole entry): as the sequence (P32121 whole entry) above
T4 sequence (Q99500 whole entry): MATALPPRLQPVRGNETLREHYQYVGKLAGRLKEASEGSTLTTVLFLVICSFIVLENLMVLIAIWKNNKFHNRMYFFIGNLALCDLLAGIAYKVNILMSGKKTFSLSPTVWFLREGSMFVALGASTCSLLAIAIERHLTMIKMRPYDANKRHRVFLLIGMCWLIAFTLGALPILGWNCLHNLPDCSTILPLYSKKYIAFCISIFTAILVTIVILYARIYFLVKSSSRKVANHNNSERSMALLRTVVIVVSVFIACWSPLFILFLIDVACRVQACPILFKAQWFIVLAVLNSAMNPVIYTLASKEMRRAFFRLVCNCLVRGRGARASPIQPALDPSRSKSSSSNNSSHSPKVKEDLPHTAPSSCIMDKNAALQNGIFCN
Source text: as §1
Assay 2a: Frozen HEK293 cells transiently transfected with receptor cDNAs for S1P1 (Invitrogen) are thawed and suspended in 10 mL of Pro293a-CDM culture medium (Invitrogen) supplemented with 4 mM L-Glutamine (Invitrogen), 1× Pen/Strep (100 units/mL penicillin and 100 μg/mL streptomycin, Invitrogen) and 0.1% fatty acid free BSA (Sigma-Aldrich). Cells are added to the wells of a 384-well white opaque bottom assay plate (PerkinElmer) at 3,000-6,000 cells per well and the plate is incubated for approximately 4 h in a 37° C. incubator. Test compounds are tested at maximum concentrations of 10 μM for the agonist assays. Compounds are diluted in DMSO (10 concentration points, 3-fold each) and added to the assay plate at a 1% final DMSO concentration. For each compound, there are duplicate assay plates and each assay plate has duplicate wells per concentration point. The plate is incubated at 37° C. for 30 min. The efficacy control is 5 μM S1P (Avanti). Following agonist addition, the assay plates are incubated in a 37° C. incubator for 16-18 h. Luciferase assay reagent is added and luminescence measured in an EnVision plate reader (PerkinElmer). To determine agonist activity, percent activity is calculated as [(test compound−background)/(positive control−background)*100], where background is the luminescence of the DMSO alone control and the positive control is the luminescence from cells incubated with the efficacy control 5 μM S1P. The percent activities are plotted against compound concentration to determine EC50 using XLFit (IDBS).
This assay was conducted using the procedures described in Assay 2a, replacing S1P1 with S1P3.

[3] = * = rEC50 measured rather than EC50, read-out: Assay 5 rEC50 (relative EC50, cells marked *)

T1 sequence (P21453 whole entry): as the sequence (P21453 whole entry) above

Compound | EC50 [1] [nM] | EC50 (S1P1) [nM] | EC50 [2] [nM] | EC50 (S1P3; [3]) [nM] | EC50 (S1P3; read-out: Assay 5 EC50) [nM]
N[C@H](CO)COc1cc(Cl)c(-c2nnc(-c3cccc(Cl)c3)s2)cc1F [Entry 15, (2R)-2-amino-3-({5-chloro-4-[5-(3-chlorophenyl)-1,3,4-thiadiazol-2-yl]-2-fluorophenyl}oxy)propan-1-ol] | 250 to 2800 | 10 to 50 | 250 to 2800 |  | > 10000
CCCOc1ccc(-c2nnc(-c3cc(F)c(OC[C@H](N)CO)cc3Cl)s2)cc1Cl [Entry 17, (2R)-2-amino-3-[(5-chloro-4-{5-[3-chloro-4-(propyloxy)phenyl]-1,3,4-thiadiazol-2-yl}-2-fluorophenyl)oxy]propan-1-ol] | 10 to 50 | 50 to 250 | 50 to 250 |  | > 10000
CC(C)Oc1ncc(-c2nnc(-c3cc(F)c(OC[C@H](N)CO)cc3Cl)s2)cc1Cl [Entry 20, (2R)-2-amino-3-{[5-chloro-4-(5-{5-chloro-6-[(1-methylethyl)oxy]pyridin-3-yl}-1,3,4-thiadiazol-2-yl)-2-fluorophenyl]oxy}propan-1-ol] | 50 to 250 | 250 to 2800 | 250 to 2800 |  | > 10000
CC(C)N(C)c1cc(-c2nnc(-c3cc(F)c(OC[C@H](N)CO)cc3Cl)s2)cc(Cl)n1 [Entry 21, (2R)-2-amino-3-{[5-chloro-4-(5-{2-chloro-6-[methyl(1-methylethyl)amino]pyridin-4-yl}-1,3,4-thiadiazol-2-yl)-2-fluorophenyl)oxy}propan-1-ol] | 50 to 250 | 10 to 50 | 50 to 250 |  | > 10000
N[C@H](CO)COc1cc(Cl)c(-c2nnc(-c3cc(F)cc(Br)c3)s2)cc1F [Entry 24, (2R)-2-amino-3-({4-[5-(3-bromo-5-fluorophenyl)-1,3,4-thiadiazol-2-yl]-5-chloro-2-fluorophenyl}oxy)propan-1-ol] | 250 to 2800 | 50 to 250 | 250 to 2800 |  | > 10000
CCOc1ccc(-c2nnc(-c3cc(F)c(OC[C@H](N)CO)cc3Cl)s2)cc1Cl [Entry 25, (2R)-2-amino-3-[(5-chloro-4-{5-[3-chloro-4-(ethyloxy)phenyl]-1,3,4-thiadiazol-2-yl}-2-fluorophenyl)oxy]propan-1-ol] | 10 to 50 | 10 to 50 | 50 to 250 |  | > 10000
CC(C)Oc1ncc(-c2nnc(-c3cc(F)c(OC[C@@H](N)CO)cc3Cl)s2)cc1Cl [Entry 32, (2S)-2-amino-3-{[5-chloro-4-(5-{5-chloro-6-[(1-methylethyl)oxy]pyridin-3-yl}-1,3,4-thiadiazol-2-yl)-2-fluorophenyl]oxy}propan-1-ol] | 10 to 50 | ≤ 10 | 250 to 2800 |  | ≤ 250

Continued, values first:

EC50 [1] [nM] | EC50 (S1P1) [nM] | EC50 [2] [nM] | EC50 (S1P3; [3]) [nM] | EC50 (S1P3; read-out: Assay 5 EC50) [nM] | Compound
≤ 10 | ≤ 10 | ≤ 10 | ≤ 250 |  | CC(C)Oc1ccc(-c2nnc(-c3cc(F)c(OC[C@@H](N)COP(=O)(O)O)cc3Cl)s2)cc1Br [Entry 12, (2R)-2-amino-3-{[4-(5-{3-bromo-4-[(1-methylethyl)oxy]phenyl}-1,3,4-thiadiazol-2-yl)-5-chloro-2-fluorophenyl]oxy}propyl dihydrogen phosphate]
≤ 10 | ≤ 10 | ≤ 10 |  | ≤ 250 | CC(C)Oc1ccc(-c2nnc(-c3cc(F)c(OC[C@H](N)COP(=O)(O)O)cc3Cl)s2)cc1Cl [Entry 13, (2S)-2-amino-3-{[5-chloro-4-(5-{3-chloro-4-[(1-methylethyl)oxy]phenyl}-1,3,4-thiadiazol-2-yl)-2-fluorophenyl]oxy}propyl dihydrogen phosphate]
≤ 10 | ≤ 10 | 10 to 50 | ≤ 250 |  | CC(C)Oc1ccc(-c2nnc(-c3cc(F)c(OC[C@@H](N)COP(=O)(O)O)cc3Cl)s2)cc1Cl [Entry 16, (2R)-2-amino-3-{[5-chloro-4-(5-{3-chloro-4-[(1-methylethyl)oxy]phenyl}-1,3,4-thiadiazol-2-yl)-2-fluorophenyl]oxy}propyl dihydrogen phosphate]
≤ 10 | 10 to 50 | 10 to 50 |  | > 10000 | CC(C)Oc1ccc(-c2nnc(-c3cc(F)c(OC[C@H](N)CO)cc3Cl)s2)cc1C(F)(F)F [Entry 18, (2R)-2-amino-3-{[5-chloro-2-fluoro-4-(5-{4-[(1-methylethyl)oxy]-3-(trifluoromethyl)phenyl}-1,3,4-thiadiazol-2-yl)phenyl]oxy}propan-1-ol]
50 to 250 | ≤ 10 | 250 to 2800 |  | > 250 | CC(C)Oc1ccc(-c2nnc(-c3cc(F)c(OCC(N)CO)cc3Cl)s2)cn1 (stereo not shown) [Entry 19, 2-amino-3-{[5-chloro-2-fluoro-4-(5-{6-[(1-methylethyl)oxy]pyridin-3-yl}-1,3,4-thiadiazol-2-yl)phenyl]oxy}propan-1-ol]
10 to 50 | 10 to 50 | 50 to 250 |  | > 10000 | CC(C)Oc1ccc(-c2nnc(-c3cc(F)c(OC[C@H](N)CO)cc3Cl)s2)nc1Cl [Entry 22, (2R)-2-amino-3-{[5-chloro-4-(5-{6-chloro-5-[(1-methylethyl)oxy]pyridin-2-yl}-1,3,4-thiadiazol-2-yl)-2-fluorophenyl]oxy}propan-1-ol]
≤ 10 | ≤ 10 | ≤ 10 |  | ≤ 250 | CC(C)Oc1ccc(-c2nnc(-c3cc(F)c(OC[C@H](N)COP(=O)(O)O)cc3Cl)s2)cc1Br [Entry 29, (2S)-2-amino-3-{[4-(5-{3-bromo-4-[(1-methylethyl)oxy]phenyl}-1,3,4-thiadiazol-2-yl)-5-chloro-2-fluorophenyl]oxy}propyl dihydrogen phosphate]
250 to 2800 | 50 to 250 | 250 to 2800 |  | > 10000 | CC(C)Oc1ccc(-c2nnc(-c3cc(F)c(OC[C@H](N)CO)cc3Cl)s2)cn1 [Entry 35, (2R)-2-amino-3-{[5-chloro-2-fluoro-4-(5-{6-[(1-methylethyl)oxy]pyridin-3-yl}-1,3,4-thiadiazol-2-yl)phenyl]oxy}propan-1-ol]
10 to 50 | ≤ 10 | 250 to 2800 |  | ≤ 250 | CC(C)Oc1ccc(-c2nnc(-c3cc(F)c(OC[C@@H](N)CO)cc3Cl)s2)cn1 [Entry 38, (2S)-2-amino-3-{[5-chloro-2-fluoro-4-(5-{6-[(1-methylethyl)oxy]pyridin-3-yl}-1,3,4-thiadiazol-2-yl)phenyl]oxy}propan-1-ol]
